# Measured values published in patent US6573258B2, “Photodynamic porphyrin antimicrobial agents” (Frontier Scientific, Inc., priority 2000, dated 2003).
# Assays:
# S. aureus cells [1] = assay: Growth inhibition after 5 min incubation with porphyrin and white-light irradiation; assay type: cell-based, Staphylococcus aureus
# Procedure: (§1) The abilities of various examples of the porphyrins of the instant invention to kill Gram-negative and Gram-positive bacteria were tested against that of T4MPyP. Each of the compounds was incubated with E. coli and S. aureus cells for 5 minutes, following which the samples were irradiated with white light for varying lengths of time.
# (§2) Escherichia coli strain O4 (wild type), and methycillin-resistant Staphylococcus aureus, strain MRSA 110, were grown aerobically at 37° C. in brain heart infusion broth (BHI, Difco, Detroit, Mich.). The cells in the stationary phase of growth were harvested by centrifugation (2,000 g for 15 min) of the broth cultures, washed twice with 10 mM PBS at pH=7.4, containing 2.7 mM KCl and 0.14 M NaCl, and suspended in PBS at a density of 10^8-10^9 cells/ml (absorbance of about 0.7 at 650 nm). Aliquots of 5 ml of the cell suspension were incubated with 1 μM porphyrins for 5 min in the dark at room temperature. After incubation the suspensions were centrifuged and the cell pellets were collected immediately or washed with PBS and centrifuged again for one or three times.
# (§3) The toxic effects of T4MPyP and its analogues on E. coli and S. aureus cells were evaluated by measuring the extent of growth inhibition (bacteriostatic effect) and reduction of survival (cytocidal/bacteriocidal effect) following treatment with porphyrin in the dark or upon light exposure.
# […] After dark-incubation, some of the cell samples were irradiated with white light (150 mW/cm^2). During irradiation, (up to 30 min) the cells were kept at 37° C. and magnetically stirred. The treated and untreated control cells were diluted with BHI and maintained at 37° C. while the absorbance of the suspension at 650 nm was monitored at predetermined time periods for determining growth curves. The percent of growth inhibition in the treated cells was calculated by the following equation:
# (§4) where AX, and AC are the absorbances measured after 3 h incubation, respectively, for the treated and control cell suspensions, respectively, while A0 represents the initial absorbance and the AC is that of the control cell suspension after 5 hours incubation. Cell survival was determined by plating serially diluted aliquots of treated and untreated cells on brain heart agar and counting the number of colonies after 18-24 h incubation at 37° C.
# [2] = Fluorescence decay times (phase-shift method); assay type: physicochemical; conditions: ca. 5 μM, air-equilibrated buffer pH 7.4, λexc = 420 nm, λem > 600 nm; for A1, relative weight of fast component: dihydrochloride salt
# Procedure: Fluorescence decay times of the porphyrin samples were measured by means of a Spex Fluorolog-τ2 spectrofluorimeter based on the phase-shift method. The frequency response curves (phase-shift and demodulation ratio vs. frequency) were globally analyzed.
# E. coli cells [3] = assay: Dark toxicity of porphyrins on bacteria cells; assay type: cell-based, Escherichia coli; conditions: 10 μM, 5 min incubation in the dark
# Procedure: as §3
# (§5) In all cases, 5 ml of the cell suspension (10^8-10^9 cells/ml) were incubated for 5 min in the dark at room temperature with the selected photosensitizer at concentrations ranging between 0.5 and 10 μM. After dark-incubation, some of the cell samples were irradiated with white light (150 mW/cm^2). During irradiation, (up to 30 min) the cells were kept at 37° C. and magnetically stirred. The treated and untreated control cells were diluted with BHI and maintained at 37° C. while the absorbance of the suspension at 650 nm was monitored at predetermined time periods for determining growth curves. The percent of growth inhibition in the treated cells was calculated by the following equation: […]
# as §4
# E. coli cells [4] = assay: Decrease of cell survival (colony counting) after white-light irradiation; assay type: cell-based, Escherichia coli; conditions: 1 μM porphyrin; for DECREASE OF SURVIVAL (log): 5 min dark incubation, 15 min white light (150 mW/cm^2)
# Procedure: as §2, §3, §5, §4
# E. coli cells [5] = assay: Growth inhibition after 5 min incubation with porphyrin and white-light irradiation; assay type: cell-based, Escherichia coli; conditions: for concentration photoinducing significant bacteriostatic and bactericidal action: both cell strains (S. aureus and E. coli)
# Procedure: as §1, §2, §3, §5, §4
# [6] = Triplet state properties by laser flash photolysis; assay type: physicochemical; conditions: phosphate-buffered solution; for φT, triplet quantum yield: ε920 estimated by total depletion method
# Procedure: Laser flash photolysis experiments were carried out by use of the setup previously described in Gomer, et al., with excitation wavelengths of 355 and 420 nm. Gorner, et al., Photoinduced electron transfer between styrylanthracenes and electron donors and acceptors in acetonitrile, J. Chem. Soc. Faraday Trans., vol. 88, pp. 29-34 (1992).
# The transient spectra of the porphyrins in buffer solutions were recorded upon laser flash photolysis excitation at 355 and 420 nm. […] The decay (growth) of the signal (bleaching) occurred according to first-order kinetics and led to a complete recovery of the ground state with a lifetime of 91 μs. […] This also allowed the triplet quantum yield (φT) to be determined (see Table 3), after calibration of the experimental setup by use of an optically-matched solution of benzophenone in acetonitrile.
# [7] = Fluorescence quantum yields; assay type: physicochemical; conditions: for ΦF (PBS), fluorescence quantum yield: in PBS; for ΦF (SDS), fluorescence quantum yield: in aqueous 2% SDS
# Procedure: Ground-state absorption spectra of the porphyrins (ca. 5 μM in phosphate buffered saline (PBS, pH=7.4) were recorded with a Lambda 5 Perkin-Elmer spectrophotometer. Fluorescence spectra, corrected for the instrumental response, were recorded with a Perkin-Elmer (model LS) or a Spex (Fluorolog F112) spectrofluorimeter. Fluorescence quantum yields ((IF) of the porphyrin derivatives in PBS and in water containing 2% sodium dodecylsulfate (a detergent, hereinafter “SDS”) were determined by measuring the area of the emission spectrum (600-800 nm range, excitation at 560 nm) and using tetra-n-propylporphycene in toluene as a reference (ΦF=0.38). Braslavsky et al, J. Photochem. Photobiol. B: Biol., 40:191-198 (1997). In all cases, the absorbance of the sample and the reference solution were kept below 0.1 at the excitation wavelength to minimize inner filter effects.
# S. aureus cells [8] = assay: Dark toxicity of porphyrins on bacteria cells; assay type: cell-based, Staphylococcus aureus; conditions: 10 μM, 5 min incubation in the dark
# Procedure: as §3, §5, §4
# [9] = Photosensitized photooxidation of NATA; conditions: 10 μM NATA; for ΦSDS × 10^3, quantum yield for photo-oxidation of NATA: aqueous 2% SDS; for ΦPBS × 10^3, quantum yield for photo-oxidation of NATA: phosphate buffered solution
# Procedure: The photosensitizing activity of the various porphyrins was tested by measuring their efficiency in promoting the photooxidation of N-acetyl-L-tryptophanamide (NATA, Aldrich Chem. Co.) as a model biological substrate. Toward this aim, 10 μM NATA in PBS or in water containing 2% SDS was irradiated in the presence of 5 μM porphyrin. The irradiations were performed with 515±10 nm-light isolated by means of an interference filter (Balzers, Liechtenstein), while the solution (2 ml) was magnetically stirred in a quartz cuvette of 1-cm optical path and kept at 25° C. The photosensitized modification of NATA was followed by measuring the decrease in the intensity of its fluorescence emission spectrum (300-450 nm) upon excitation with 290 nm-light at various irradiation times. Plots of in F°/F (where F° and F represent the fluorescence intensity at time 0 and t, respectively) vs. the irradiation time allowed the first-order rate constants of the photo-process to be derived.
# The intensity of the incident light was measured by using Aberchrome 999P in toluene as an actinometer. Heller, EPA Newslett., 29:49-60 (1987). This parameter was used to calculate the quantum yields of NATA photooxidation sensitized by the different porphyrins.
# [10] = 0.5 μM, incubated 5 min, white light 5 min
# [11] = 0.5 μM, incubated 5 min, white light 10 min
# [12] = Table 5: 0.5 μM, 5 min incubation, 5 min white light (150 mW/cm^2)
# [13] = Table 5: 1 μM, 5 min incubation, 5 min white light (150 mW/cm^2)
SMILES,Growth inhibition (%) S. aureus (S. aureus cells [1]; [10]) [%],Growth inhibition (%) S. aureus (S. aureus cells [1]; [11]) [%],Growth inhibition (%) S. aureus (S. aureus cells [1]; [12]) [%],"A2, relative weight of slow component [2] [%]","τ1, fluorescence decay time of fast component [2] [ns]","τ2, fluorescence decay time of slow component [2] [ns]","A1, relative weight of fast component [2] [%]",inhibition of bacterial cell growth in the dark (E. coli cells [3]),DECREASE OF SURVIVAL (log) (E. coli cells [4]),Growth inhibition (%) E. coli (E. coli cells [5]; [10]) [%],Growth inhibition (%) E. coli (E. coli cells [5]; [11]) [%],Growth inhibition (%) E. coli (E. coli cells [5]; [12]) [%],concentration photoinducing significant bacteriostatic and bactericidal action (E. coli cells [5]),λmax of transient spectrum [6] [nm],λmin of transient spectrum [6] [nm],φ×ε920 [6] [M⁻¹ cm⁻¹],"τ^N2, triplet lifetime [6] [μs]","τ^air, triplet lifetime [6] [μs]","φT, triplet quantum yield [6]","ΦF (PBS), fluorescence quantum yield [7]",further results
"CCCCCCCCCCCCCC[n+]1ccc(-c2c3nc(c(-c4cc[n+](C)cc4)c4ccc([nH]4)c(-c4cc[n+](C)cc4)c4nc(c(-c5cc[n+](C)cc5)c5ccc2[nH]5)C=C4)C=C3)cc1.Cl.Cl.[Cl-].[Cl-].[Cl-].[Cl-] [Porphyrin C14, 5-(4-N-tetradecylpyridyl)-10,15,20-tris(4-N-methylpyridyl)-21H,23H-porphine tetrachloride dihydrochloride salt]",72.7,88.9,73,98,1.0,6.5,2,complete inhibition,−4.35 ± 0.45,81.8,100,82,ten-fold lower concentration,480,425,9762,70,20,0.48,0.019,"drop in survival of E. coli cells (E. coli cells [4]; 15 min irradiation): 4 log; ΦF (SDS), fluorescence quantum yield [7]: 0.022; inhibition of bacterial cell growth in the dark (S. aureus cells [8]): complete inhibition; ΦSDS × 10^3, quantum yield for photo-oxidation of NATA [9]: 0.71 ± 0.03; ΦPBS × 10^3, quantum yield for photo-oxidation of NATA [9]: 0.66 ± 0.10"
"CCCCCCCCCCCCCCCCCC[n+]1ccc(-c2c3nc(c(-c4cc[n+](C)cc4)c4ccc([nH]4)c(-c4cc[n+](C)cc4)c4nc(c(-c5cc[n+](C)cc5)c5ccc2[nH]5)C=C4)C=C3)cc1.Cl.Cl.[Cl-].[Cl-].[Cl-].[Cl-] [Porphyrin C18, 5-(4-N-octadecylpyridyl)-10,15,20-tris(4-N-methylpyridyl)-21H,23H-porphine tetrachloride dihydrochloride salt]",41.4,58.1,42,97,1.4,9.0,3,complete inhibition,−2.78 ± 0.62,26,56.6,26,ten-fold lower concentration,470,420,2700,74,21,0.17,0.022,"Growth inhibition (%) S. aureus (S. aureus cells [1]; 0.1 μM, incubated 5 min, white light 5 min): 12.7%; Growth inhibition (%) S. aureus (S. aureus cells [1]; 0.1 μM, incubated 5 min, white light 10 min): 20.2%; Growth inhibition (%) S. aureus (S. aureus cells [1]; [13]): 59%; Growth inhibition (%) E. coli (E. coli cells [5]; 1 μM, incubated 5 min, white light 5 min): 57.9%; Growth inhibition (%) E. coli (E. coli cells [5]; 1 μM, incubated 5 min, white light 10 min): 95.7%; Growth inhibition (%) E. coli (E. coli cells [5]; [13]): 58%; ΦF (SDS), fluorescence quantum yield [7]: 0.024; inhibition of bacterial cell growth in the dark (S. aureus cells [8]): complete inhibition; ΦSDS × 10^3, quantum yield for photo-oxidation of NATA [9]: 0.80 ± 0.04; ΦPBS × 10^3, quantum yield for photo-oxidation of NATA [9]: 0.14 ± 0.01"
"C[n+]1ccc(-c2c3nc(c(-c4cc[n+](C)cc4)c4ccc([nH]4)c(-c4cc[n+](Cc5ccccc5)cc4)c4nc(c(-c5cc[n+](C)cc5)c5ccc2[nH]5)C=C4)C=C3)cc1.Cl.Cl.[Cl-].[Cl-].[Cl-].[Cl-] [mono-benzyl, 5-(4-N-benzylpyridyl)-10,15,20-tris(4-N-methylpyridyl)-21H,23H-porphine tetrachloride dihydrochloride salt]",–,–,–,–,–,–,–,–,–,–,–,–,–,–,–,–,–,–,–,–,"Growth inhibition (%) E. coli (E. coli cells [5]; 10 μM, incubated 5 min, white light 5 min): 54.1%; Growth inhibition (%) E. coli (E. coli cells [5]; 10 μM, incubated 5 min, white light 10 min): 100%; photodynamic effectiveness relative to base porphyrin (E. coli cells [5]; same conditions as base porphyrin): about twice as effective as the base porphyrin"
